Legend:
C3H10T1/2 cells [1] = experiment: Differentiation of adipocytes (oil Red O staining); assay type: cell-based; settings: for Adipocyte differentiation, oil Red O, Mean OD ± SEM: 10-day treatment, absorbance at 540 nm; for Differentiation of the cells into adipocytes, result in words: co-treatment with insulin, compared with insulin alone
Description: C3H10T1/2 cells were grown to confluence as described in Example 1, then treated for 10 days with insulin alone (negative control) or with a mixture of insulin and the compound of the formula I-13 at different concentrations (see Table 2), with re-feeding with fresh medium and compounds every 48-h. After 10-days of treatment, the cells were stained with oil Red O as follows: cells were washed 2× in PBS and fixed in 10% formalin at room temperature for 1 h. After removal of formalin, 200 μl of oil Red O staining solution (3:2 mixture of 0.5% w/v oil Red O stock solution and water) was applied to each well. The cells were incubated for 20 min at room temperature, washed twice in 2×PBS and incubated for 10 min with 300 μl of isopropanol/well for oil Red O extraction. Quantification of oil Red O was determined by measuring absorbance at 540 nm (mean OD). […] C3H10T1/2 cells were grown and treated as described in Example 4 with the exception that the compound of the formula I-14 was used instead of the compound of the formula I-13. The measurement of adipocyte differentiation using the oil Red O assay was performed as described in Example 4. […] C3H10T1/2 cells were grown and treated as described in Example 4 with the exception that the compound of the formula I-15 was used instead of the compound of the formula I-13. The measurement of adipocyte differentiation using the oil Red O assay was performed as described in Example 4.

C3H10T1/2 cells [2] = experiment: Glucose uptake of adipocytes (radioactive 2-deoxyglucose, basal, without insulin); assay type: cell-based; settings: 48-h treatment; for Basal glucose uptake (% of control ± SEM): absence of insulin, DMSO control = 100%; for Basal glucose uptake, result in words: different concentrations
Description: C3H10T1/2 cells (ATCC CCL-226) were grown for 5 days to confluence in DMEM supplemented with 10% FBS medium and induced with a mixture of insulin, dexamethasone and 3-isobutyl-1-methylxanthine to differentiate into adipocytes. Nine days after the beginning of induction, cells were treated for 48-h with the compound of the formula I-13 at different concentrations as shown in Table 1. Glucose uptake was determined using radioactive 2-deoxyglucose (10 μM 2-DG in HBS+0.5 μCi/ml of 3[H]-2-DG), measuring glucose uptake in the absence of insulin. Basal glucose uptake was increased by 48-h treatment with the compound of the formula I-13 in a dose-dependent manner (Table 1). Growing, induction and treatment of C3H10T1/2 cells were exactly as described in Example 1, with the exception that the compound of the formula I-15 at different concentrations was used instead of the compound of the formula I-13. […] Control: C3H10T1/2 cells treated for 48 h with DMSO at the same concentration as compound-treated cells and set at 100%

C57BLKS/J db/db mice = experiment: Glucose tolerance / blood glucose in a 14-day db/db mouse study (OGTT); assay type: in vivo
Description: The efficacy of the compound of the formula I-13 on glucose tolerance was tested in a 14-day study in C57BLKS/J db/db mice (n=10/group), a model of late type 2 diabetes mellitus with severe hyperglycemia.
Male db/db mice were obtained from Jackson Laboratory (Bar Harbor, Me., USA). Adult mice aged 8 weeks were used in the experiment. Mice were housed individually in plastic cages with bedding and allowed free access to standard rodent food and tap water. The animal rooms were controlled for temperature (24° C.), humidity (55%), and light (12-h light-dark cycle). The animals were randomized in two groups and the compound of the formula I-13 was administered orally to one of the groups for 14 days at a dose of 200 mg/kg BW/day. After 14 days of treatment the concentration of glucose was determined in blood from fed animals, i.e., animals which were not restricted from food. After a period of 10 days of treatment an oral glucose tolerance test (OGTT) was performed. For the OGTT mice were fasted overnight and then a 1-g glucose/kg BW solution was orally administered. Blood samples were taken before and 15, 30, 45, 60, 90, 120, 150, 180 min after the glucose challenge for determination of blood glucose levels and then the area under the curve (AUC) was determined. Blood glucose was measured by a glucose analyzer (Glucotrend Premium, Roche Diagnostics, Rotkreuz, Switzerland). The glucose and the free fatty acid (FFA) levels of fed animals (see above) were lowered after 14 days of treatment with the compound of the formula I-13. After 10 days of treatment with the compound of the formula I-13 the glucose levels of fasted animals, i.e., animals with an overnight fasting (see above) were decreased as compared to the untreated control group.

[3] = Insulin 1 × 10^−7 M + compound 1 × 10^−5 M
[4] = 200 mg/kg BW/day orally, after 14 days, fed animals

Compound	Basal glucose uptake (% of control ± SEM) (C3H10T1/2 cells [2]; 5 × 10^−5 M)	Adipocyte differentiation, oil Red O, Mean OD ± SEM (C3H10T1/2 cells [1]; [3])	Differentiation of the cells into adipocytes, result in words (C3H10T1/2 cells [1])	Basal glucose uptake (% of control ± SEM) (C3H10T1/2 cells [2]; 1 × 10^−5 M)	Basal glucose uptake (% of control ± SEM) (C3H10T1/2 cells [2]; 1 × 10^−6 M)	Basal glucose uptake, result in words (C3H10T1/2 cells [2])	also measured
Insulin	–	–	–	–	–	–	Adipocyte differentiation, oil Red O, Mean OD ± SEM (C3H10T1/2 cells [1]; Insulin 1 × 10^−7 M alone (negative control)): 0.28 ± 0.03
CC1(COc2ccc(CC3SC(=O)NC3=O)cc2)CCCCC1 (stereo not shown) [Ciglitazone, reference compound]	496.178 ± 61.86 % of control	–	–	–	–	–	–
COc1ccc(/C=C/C(=O)c2ccc(OC(=O)c3ccccc3)cc2)cc1OC [I-15]	116.17 ± 15.96 % of control	0.53 ± 0.025	higher differentiation	133.28 ± 23.4 % of control	105.37 ± 2.21 % of control	increase	Adipocyte differentiation, oil Red O, Mean OD ± SEM (C3H10T1/2 cells [1]; Insulin 1 × 10^−7 M + compound 2 × 10^−4 M): 0.34 ± 0.087; Adipocyte differentiation, oil Red O, Mean OD ± SEM (C3H10T1/2 cells [1]; Insulin 1 × 10^−7 M + compound 5 × 10^−5 M): 0.53 ± 0.017; Basal glucose uptake (% of control ± SEM) (C3H10T1/2 cells [2]; 2 × 10^−4 M): 142.84 ± 18.05 % of control
COc1ccc(C(=O)C=Cc2cccc(OC(=O)C=Cc3ccccc3)c2)cc1 [I-14]	–	0.45 ± 0.037	higher differentiation	–	–	–	–
COc1ccc(C(=O)/C=C/c2c(CCN(C)C(C)=O)cc3c(c2OC)OCO3)cc1 [I-13]	–	0.69 ± 0.019	higher differentiation	94.58 ± 0.95 % of control	97.6 ± 22.9 % of control	increased	Glucose AUC (C57BLKS/J db/db mice; 200 mg/kg BW/day orally, OGTT (1 g glucose/kg BW) on day 10, 0-180 min): 54295; Blood Glucose Fasted (C57BLKS/J db/db mice; 200 mg/kg BW/day orally, after 10 days, overnight fasting): 135 mg/dL; Blood Glucose Fed (C57BLKS/J db/db mice; [4]): 771 mg/dL; FFA (C57BLKS/J db/db mice; [4]): 12.38 mg/dL; Glucose AUC of an OGTT, result in words (C57BLKS/J db/db mice; 200 mg/kg BW/day, OGTT 1 g glucose/kg body weight on day 10): significantly reduced; Glucose levels of fasted animals, result in words (C57BLKS/J db/db mice; 200 mg/kg BW/day, after 10 days, compared to untreated control group): decreased; Glucose and free fatty acid (FFA) levels of fed animals, result in words (C57BLKS/J db/db mice; 200 mg/kg BW/day, after 14 days): lowered; Blood glucose levels during the OGTT, result in words (C57BLKS/J db/db mice; 200 mg/kg BW/day, day 10, compared with control group): lower at all time points; Basal glucose uptake (% of control ± SEM) (C3H10T1/2 cells [2]; 2.4 × 10^−5 M): 128.6 ± 0.89 % of control; Basal glucose uptake (% of control ± SEM) (C3H10T1/2 cells [2]; 5 × 10^−4 M): 194.058 ± 0.05 % of control

— US20090203773A1, “Compounds for the Treatment of Non-Autoimmune Type 2 Diabetes Mellitus and/or Syndrome X” (priority 2005, published 2009)
